What all share (type): cell-based
For assay [1], the system named is Pseudomonas aeruginosa, Enterobacter aerogenes, Escherichia coli, Klebsiella pneumoniae, Staphylococcus aureus, Salmonella choleraesuis (combined cultures). The assay is described as follows: Preservative efficacy of DMX/BNPD in water-based latex paint, repeated bacterial challenge. Conditions: for log10 viable microorganisms recovered: day 20. How it is done:
(§1) Synergy Calculations. The reported synergy indexes are measured and calculated using the formula described below. In this approach, a synergy index of 1 indicates additivity. If the index is less than 1, synergy has occurred, while a synergy index greater than 1 indicates antagonism. Synergy index=CA/Ca+CB/Cb • Ca=minimal concentration of antimicrobial A, alone, producing a 4 log10 microbial kill • Cb=minimal concentration of antimicrobial B, alone, producing a 4 log10 microbial kill
(§2) CA and CB=the concentrations of antimicrobials A and B, in combination, producing the required microbial kill (a 4 log10 microbial kill unless indicated otherwise in a particular Example).
In this Example, the antimicrobial profiles of dimethoxane (DMX), 2-bromo-2-nitropropane-1,3-diol (BNPD) and combinations of DMX and BNPD are evaluated in a commercial (interior eggshell) water-based latex paint formulation (pH 7.4). The paint formulation is determined to be free of microbial contamination prior to initiation of preservative efficacy evaluations.
Experimental Setup. Tests are conducted in a 96-deep well block format using a total sample volume of 600 μl for all evaluations. In these samples, no more than 10% of the total volume consists of the biocide and organism solution and all non-matrix additions are normalized for all samples. Each experimental 96-well block contains biocide-treated samples and control samples which lack biocide.
Microorganisms. Twenty-four hour tryptic soy broth cultures are combined in equal parts for formulation inoculation at a final concentration of 5×10^6 CFU/ml. Organisms are added to each sample of the 96-well block and mixed until homogenous. Additionally, bacterial challenges of the paint samples occur on days 0, 2, 7, and 14 of the 28-day test period. Organisms utilized: Pseudomonas aeruginosa (ATCC#15442), Pseudomonas aeruginosa (ATCC#10145), Enterobacter aerogenes (ATCC#13048), Escherichia coli (ATCC#11229), Klebsiella pneumoniae (ATCC#8308), Staphylococcus aureus (ATCC#6538), Salmonella choleraesuis (ATCC#10708).
Enumeration of Viable Organisms. Sample aliquots are removed, at predetermined time points, for the enumeration of surviving microorganisms. Numerical values in the data tables listed below represent the log10 viable microorganisms recovered from individual samples at specific time points and biocide concentrations post microorganism addition. Biocide concentrations resulting in a ≧4 log10 kill of microorganisms, as compared to the preservative-free control, are deemed a significant reduction of viable organisms and are subsequently used for calculating synergy index values.

For assay [2] the test system is unchanged. The assay is described as follows: Preservative efficacy of DMX/BNPD in spinning finish emulsion, repeated bacterial challenge. Conditions: ≧6 log10 microbial kill, day 27, post 4th microbial challenge. The method, then: as §1, §2
In this Example, the antimicrobial profiles of dimethoxane (DMX), 2-bromo-2-nitropropane-1,3-diol (BNPD) and combinations of DMX and BNPD are evaluated in a spinning finish emulsion. The spinning finish emulsion is determined to be free of microbial contamination prior to initiation of preservative efficacy evaluations. The spinning finish emulsion is prepared by adding 1 part spinning finish oil to 9 parts distilled water followed by 30 minutes of mixing.
Experimental Setup. Tests are conducted in a 96-deep well block format using a total sample volume of 300 to 600 μl for all evaluations. […]

Assay [3] concerns Pseudomonas aeruginosa, Enterobacter gergoviae, Pseudomonas putida, Salmonella choleraesuis, Escherichia coli, Staphylococcus aureus (mixed inoculum). Briefly: Preservative efficacy of dimethoxane/BNPD in laundry detergent, repeated bacterial challenge. The arrangement: key to viable microorganism score (0-8 scale): 0-8 score = number of 1:10 dilutions to reach growth endpoint. Conditions: day 20. How it is done:
as §1, §2
A sample of laundry detergent is treated with dimethoxane, BNPD, and combinations thereof. The samples are inoculated with four times over a four-week period with a 5×10^6 colony forming units per milliliter (CFU/mL) inoculum that includes Pseudomonas aeruginosa ATCC#9027, Enterobacter gergoviae ATCC#33028 Pseudomonas putida ATCC#49128, Salmonella choleraesuis ATCC#10708, Pseudomonas aeruginosa ATCC#10145, Pseudomonas aeruginosa ATCC#15442, Escherichia coli ATCC#11229, and Staphylococcus aureus ATCC#6538. The samples are inoculated on days 0, 2, 7, and 14 and analyzed for bacteria content on days 0, 1, 2, 3, 6, 8, 13, 15, 20, and 27. The bacteria concentrations are determined by serial dilution (1:10) until a growth endpoint is reached. The sample is scored on a 0-8 scale, based upon the number of serial dilutions required to reach the growth endpoint. For example, if a sample requires four 1:10 dilutions before bacterial growth is lost, then the sample receives a score of 4 which represents between 5×10^4 and 5×10^5 viable organisms.

Assay [4] has the same test system. The assay is described as follows: Preservative efficacy of dimethoxane/dibromoglutaronitrile in laundry detergent, repeated bacterial challenge. Conditions: day 20.
Assay [5] has the same test system. The assay is described as follows: Preservative efficacy of dimethoxane/2-phenoxyethanol in laundry detergent, repeated bacterial challenge. Conditions: day 27.
Setting [6] is: ≧4 log10 microbial kill, day 20, after four bacterial challenges, ppm active.
Where [7] appears, read: minimal concentration alone giving passing score (2 or less).

Regarding `O=[N+]([O-])C(Br)(CO)CO` [BNPD, 2-Bromo-2-nitropropane-1,3-diol], the “log10 viable microorganisms recovered” value in assay [1] (BNPD 26 ppm alone), in assay [1] (BNPD 40 ppm alone), in assay [1] (BNPD 59 ppm alone), in assay [1] (BNPD 89 ppm alone), in assay [1] (BNPD 133 ppm alone) and in assay [1] (BNPD 200 ppm alone) was 8 in each case. Further, the “log10 viable microorganisms recovered” value in assay [1] (BNPD 300 ppm alone) and in assay [1] (BNPD 450 ppm alone) was 0 throughout. The results for the “BNPD alone (ppm)” value in assay [1] (setting [6]) and in assay [3] (4 log10 kill of bacteria) were 300 ppm and 99 ppm, respectively. Besides, the “BNPD alone (ppm), active concentration necessary for microbial kill” value in assay [2] is 137 ppm. The “viable microorganism score (0-8 scale)” value in assay [3] (BNPD 44 ppm alone) came to 4.0; in assay [3] (BNPD 66 ppm alone), 2.0; in assay [3] (BNPD 99 ppm alone) it was 0.0; in assay [3] (BNPD 148 ppm alone), 0.0; in assay [3] (BNPD 222 ppm alone), 0.0; in assay [3] (BNPD 333 ppm alone) it was 0.0. In addition, the “viable microorganism score (0-8 scale)” value in assay [3] (BNPD 500 ppm alone) and in assay [3] (BNPD 750 ppm alone) was 0.0 in each case.

With `N#CCCC(Br)(C#N)CBr` (stereo not shown) [DBGN, 2-Bromo-2-(bromomethyl)glutaronitrile], the “viable microorganism score (0-8 scale)” value came out at 8 in assay [4] (DBGN 3 ppm alone); 8 in assay [4] (DBGN 4 ppm alone); 8 in assay [4] (DBGN 7 ppm alone); 8 in assay [4] (DBGN 10 ppm alone); 8 in assay [4] (DBGN 15 ppm alone); 7 in assay [4] (DBGN 22 ppm alone). For the same compound, the “viable microorganism score (0-8 scale)” value worked out at 3 in assay [4] (DBGN 33 ppm alone) and 0 in assay [4] (DBGN 50 ppm alone). Also, in assay [4] (setting [7]), the “Min alone, DBGN (ppm)” value was 50 ppm.

In the case of `CC(=O)OC1CC(C)OC(C)O1` (stereo not shown) [DMX, 2,6-Dimethyl-m-dioxan-4-ol acetate], the “log10 viable microorganisms recovered” value in assay [1] (DMX 102 ppm alone), in assay [1] (DMX 153 ppm alone), in assay [1] (DMX 229 ppm alone), in assay [1] (DMX 344 ppm alone), in assay [1] (DMX 516 ppm alone) and in assay [1] (DMX 773 ppm alone) was 8 in each case. Besides, the figures for the “log10 viable microorganisms recovered” value in assay [1] (DMX 1160 ppm alone) and in assay [1] (DMX 1740 ppm alone) were 8 and 0, respectively. Moreover, the “DMX alone (ppm)” value in assay [1] (setting [6]) amounted to 1740 ppm; in assay [3] (4 log10 kill of bacteria), 1160 ppm. The “viable microorganism score (0-8 scale)” value was found to be 8 in assay [4] (DMX 76 ppm alone); 8 in assay [4] (DMX 115 ppm alone); 8 in assay [4] (DMX 172 ppm alone); 7 in assay [4] (DMX 258 ppm alone); 3 in assay [4] (DMX 387 ppm alone); 2 in assay [4] (DMX 580 ppm alone). Further, the “viable microorganism score (0-8 scale)” value in assay [4] (DMX 870 ppm alone) stood at 2; in assay [4] (DMX 1305 ppm alone) it was 0; in assay [3] (DMX 153 ppm alone) it was 5.0; in assay [3] (DMX 229 ppm alone), 5.0; in assay [3] (DMX 344 ppm alone), 5.0; in assay [3] (DMX 516 ppm alone), 6.0. For the same compound, the “viable microorganism score (0-8 scale)” value in assay [3] (DMX 773 ppm alone) is listed as 4.0; in assay [3] (DMX 1160 ppm alone), 0.0; in assay [3] (DMX 1740 ppm alone) it was 0.0; in assay [3] (DMX 2610 ppm alone), 0.0; in assay [5] (DMX 153 ppm alone) it was 7; in assay [5] (DMX 229 ppm alone), 6. Moreover, the “viable microorganism score (0-8 scale)” value was found to be 6 in assay [5] (DMX 344 ppm alone); 6 in assay [5] (DMX 516 ppm alone); 0 in assay [5] (DMX 773 ppm alone); 0 in assay [5] (DMX 1160 ppm alone); 0 in assay [5] (DMX 1740 ppm alone); 0 in assay [5] (DMX 2610 ppm alone). In addition, in assay [4] (setting [7]), the “Min alone, DMX (ppm)” value was 580 ppm. Further, in assay [5] (setting [7]), the “Min alone, Dimethoxane (ppm)” value is 773 ppm.

Turning to `OCCOc1ccccc1` [Combination 2-PE, 2-Phenoxyethanol], the “viable microorganism score (0-8 scale)” value in assay [5] (2-PE 585 ppm alone) is given as 7; in assay [5] (2-PE 878 ppm alone), 7; in assay [5] (2-PE 1317 ppm alone), 7; in assay [5] (2-PE 1975 ppm alone), 7; in assay [5] (2-PE 2963 ppm alone), 5; in assay [5] (2-PE 4444 ppm alone) it was 6. Further, the “viable microorganism score (0-8 scale)” value in assay [5] (2-PE 6667 ppm alone) is given as 6; in assay [5] (2-PE 10000 ppm alone), 0. Further, in assay [5] (setting [7]), the “Min alone, 2-PE (ppm)” value stood at 10000 ppm.

(Values after US8828414B2, “Biocidal composition of 2,6-dimethyl-m-dioxane-4-ol acetate and methods of use” (priority 2009, dated 2014).)
